Results from patent publication US20110274657A1, “OXADIAZOLE DERIVATIVES AS S1P1 RECEPTOR ANTAGONISTS” (priority 2009, published 2011).

Target: S1P1 receptors (Homo sapiens, UniProt P21453)
Test: 35S-GTPyS binding assay
Format: biochemical
Details: 35S-GTPyS binding to membranes, 90 min at room temperature; 10 μM S1P used as 100% maximum efficacy
Method: The effect of the compounds was measured using a 35S-GTPyS binding assay. Briefly, membranes were incubated in a buffer containing 20 mM HEPES pH 7.4, 100 mM NaCl, 10 mM MgCl2, 10 μM GDP, 50 μg/mL saponin and 0.2% fatty acid-free BSA at various concentrations (0.1 nM-10 μM) and 0.1 nM 35S-GTPyS. 10 μM S1P was used as 100% maximum efficacy. The assay was incubated for 90 min at room temperature with gentle mixing, and terminated by filtrating the reaction mixture through GF/C filter plates using the Manifold Filtration System. The filters were immediately washed with sodium phosphate pH 7.4 buffer. After drying the filter plates scintillant liquid were added to each well and 35S-GTPyS binding was measured on a Trilux Scintillation Counter.

Sequence of S1P1 receptors (P21453 whole entry): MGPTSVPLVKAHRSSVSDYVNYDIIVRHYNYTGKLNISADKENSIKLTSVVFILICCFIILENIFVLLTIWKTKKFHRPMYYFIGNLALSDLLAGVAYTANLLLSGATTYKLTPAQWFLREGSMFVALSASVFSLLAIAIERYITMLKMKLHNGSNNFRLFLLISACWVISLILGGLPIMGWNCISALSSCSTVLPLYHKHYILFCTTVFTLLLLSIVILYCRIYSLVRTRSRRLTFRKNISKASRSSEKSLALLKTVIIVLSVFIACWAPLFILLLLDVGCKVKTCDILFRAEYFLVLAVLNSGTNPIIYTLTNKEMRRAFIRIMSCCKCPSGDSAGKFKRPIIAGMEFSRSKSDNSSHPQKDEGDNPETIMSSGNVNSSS

Row | Structure (SMILES) | EC50
1 | CNc1ncc(-c2nc(-c3cc(C)c(OCCN)c(C)c3)no2)c2c1CC(C)(C)CC2 [Example 36, 4-{3-[4-(2-aminoethoxy)-3,5-dimethylphenyl]-1,2,4-oxadiazol-5-yl}-N,7,7-trimethyl-5,6,7,8-tetrahydroisoquinolin-1-amine] | 0.0164 µM
2 | CCc1ncc(-c2nc(-c3cc(C)c(CCC(N)=O)c(C)c3)no2)c2c1CC(C)(C)CC2 [Example 6, 3-(4-(5-(1-ethyl-7,7-dimethyl-5,6,7,8-tetrahydroisoquinolin-4-yl)-1,2,4-oxadiazol-3-yl)-2,6-dimethylphenyl)propanamide] | 0.029 µM
3 | Cc1cc(-c2noc(-c3cnc(N(C)C)c4c3CCC(C)(C)C4)n2)cc(C)c1CC(O)CO (centres unmarked) [Example 37, 3-(4-{5-[1-(dimethylamino)-7,7-dimethyl-5,6,7,8-tetrahydroisoquinolin-4-yl]-1,2,4-oxadiazol-3-yl}-2,6-dimethylphenyl)propane-1,2-diol] | 0.0217 µM
4 | Cc1cc(-c2noc(-c3cncc4c3CCC(C)(C)C4)n2)cc(C)c1CC(O)CO (centres unmarked) [Example 22, 3-(4-(5-(7,7-dimethyl-5,6,7,8-tetrahydroisoquinolin-4-yl)-1,2,4-oxadiazol-3-yl)-2,6-dimethylphenyl)propane-1,2-diol] | 0.019 µM
5 | Cc1cc(-c2noc(-c3cncc4c3CCC(C)(C)C4)n2)cc(C)c1CCNCC(F)F [Example 24, N-(4-(5-(7,7-dimethyl-5,6,7,8-tetrahydroisoquinolin-4-yl)-1,2,4-oxadiazol-3-yl)-2,6-dimethylphenethyl)-2,2-difluoroethanamine] | 0.0194 µM
6 | Cc1cc(-c2noc(-c3cncc4c3CCC(C)(C)C4)n2)cc(C)c1CCN1CC(C(=O)O)C1 [Example 25, 1-(4-(5-(7,7-dimethyl-5,6,7,8-tetrahydroisoquinolin-4-yl)-1,2,4-oxadiazol-3-yl)-2,6-dimethylphenethyl)azetidine-3-carboxylic acid] | 0.0367 µM
7 | CCc1ncc(-c2nc(-c3cc(C)c(CCN)c(C)c3)no2)c2c1CC(C)(C)CC2 [Example 7, 2-(4-(5-(1-ethyl-7,7-dimethyl-5,6,7,8-tetrahydroisoquinolin-4-yl)-1,2,4-oxadiazol-3-yl)-2,6-dimethylphenyl)ethanamine] | 0.0108 µM
8 | Cc1cc(-c2noc(-c3cnc(C4CC4)c4c3CCC(C)(C)C4)n2)cc(C)c1CCC(=O)O [Example 8, 3-(4-(5-(1-cyclopropyl-7,7-dimethyl-5,6,7,8-tetrahydroisoquinolin-4-yl)-1,2,4-oxadiazol-3-yl)-2,6-dimethylphenyl)propanoic acid] | 0.0285 µM
